Read-outs that look alike come from different tables or passages of the source.
Experiments:
[1] = target: T1, CD73 on U138 neuroglioma cells (Homo sapiens, UniProt P21589); assay: Inhibition of Ecto-5′-Nucleotidase Activity in U138 Neuroglioma Cells (Assay 2); assay type: cell-based
T1 construct: U138 neuroglioma cells, which express CD73 on their surface; endogenous in cells; host or cells: U138 neuroglioma cells (ATCC)
T1 sequence (P21589 27-549): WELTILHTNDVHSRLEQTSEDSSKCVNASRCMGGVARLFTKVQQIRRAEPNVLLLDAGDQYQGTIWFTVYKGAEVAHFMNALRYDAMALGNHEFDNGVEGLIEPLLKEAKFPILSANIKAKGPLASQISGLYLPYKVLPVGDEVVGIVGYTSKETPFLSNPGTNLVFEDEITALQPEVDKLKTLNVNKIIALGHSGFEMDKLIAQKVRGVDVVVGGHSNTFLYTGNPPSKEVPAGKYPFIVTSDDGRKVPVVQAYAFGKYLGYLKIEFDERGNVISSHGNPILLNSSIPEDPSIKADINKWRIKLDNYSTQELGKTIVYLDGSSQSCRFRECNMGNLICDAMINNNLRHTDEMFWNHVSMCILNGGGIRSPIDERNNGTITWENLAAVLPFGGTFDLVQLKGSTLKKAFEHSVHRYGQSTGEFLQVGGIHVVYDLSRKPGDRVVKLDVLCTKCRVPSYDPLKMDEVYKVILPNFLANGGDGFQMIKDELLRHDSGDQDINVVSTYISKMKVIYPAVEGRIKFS
Description: Inhibition of Ecto-5′-Nucleotidase Activity in U138 Neuroglioma Cells (Assay 2)
U138 cells were obtained from the American Type Culture Collection (ATCC) (Manassas, Va.), and cultured in complete growth media (DMEM, 10% FBS, 1 mM L-glutamine, 100 U penicillin-streptomycin) at 37° C., 5% CO2. The day before the experiment, cells were seeded at 2,500 cells/well in 100 μL of complete media into 96-well plates. Cells were washed twice with 200 μL of assay buffer (20 mM HEPES, pH 7.4, 137 mM NaCl, 5.4 mM KCl, 1.3 mM CaCl2, 4.2 mM NaHCO3, 1 mg/mL glucose) to remove residual inorganic phosphate. After washing, assays contained serial dilutions of test compounds and 50 μM of cytidine-5′-monophosphate (CMP) in a total volume of 200 μL of assay buffer, with a final DMSO concentration ≤0.1%. After 2 hr at 37° C., 5% CO2, 100 μL of supernatant was removed from the cells and the concentration of inorganic phosphate was determined using malachite green reagent. IC50 values for test compounds were determined from nonlinear regression fits of the data using XLfit (IDBS).

human CD73 = target: T2, human CD73 (Homo sapiens, UniProt P21589); assay: Inhibition of 5′-Nucleotidase Activity of CD73 (Assay 1); assay type: biochemical; details: 50 μM CMP, 20 min at RT, malachite green readout
T2 construct: purchased R&D Systems 5795-EN-010
T2 sequence (P21589 27-549): T1 sequence (P21589 27-549)
Description: Inhibition of 5′-Nucleotidase Activity of CD73 (Assay 1)
Compounds of the present invention were tested for the ability to inhibit CD73 enzyme activity. Tested compounds were dissolved in DMSO (50× final concentration), and 3.2 μL of the solutions added to 96-well polystyrene plates. To these wells were added, 100 μL of human CD73 (R&D Systems Cat. No. 5795-EN-010) and 57 μL of cytidine-5′-monophosphate (CMP) solutions in assay buffer (25 mM Tris-HCl, pH 7.4, 0.005% Brij-35) were added to achieve final concentrations in the assay of 4 ng/ml CD73 and 50 μM of CMP. The assay mixture was incubated for 20 min at RT. The reaction was stopped by addition of 40 μL of malachite green reagent which was prepared by mixing together 10 ml 2M H2SO4, 2.5 ml of 15% ammonium molybdate and 0.2 ml of 11% Tween-20. The mixture was agitated vigorously for 10 min at RT, and absorbance at 620 nm was determined on a microplate spectrophotometer. […] The IC50 values were derived using a non-linear 4 parameter logistic model (XLFit software, IDBS) and correspond to the inflection points on dose-response curves.

[2] = 50 μM CMP, 2 hr at 37° C., malachite green readout, read-out: Assay 2: IC50, inhibition of ecto-5′-nucleotidase activity in U138 neuroglioma cells
[3] = human CD73 4 ng/ml, read-out: Assay 1: IC50, inhibition of 5′-nucleotidase activity of CD73
[4] = Assay 1: IC50, inhibition of 5′-nucleotidase activity of CD73, human CD73 4 ng/ml

| SMILES | IC50 [1, 2] [nM] | IC50 (human CD73; [3]) [nM] | other results |
| --- | --- | --- | --- |
| CCOC(=O)[C@H](OC[C@H]1O[C@@H](n2cnc3c(N)nc(Cl)nc32)[C@H](O)[C@@H]1O)P(=O)(O)O (single isomer, unassigned) [1, isomer 1] | < 100 | < 100 | – |
| CCOC(=O)[C@@H](OC[C@H]1O[C@@H](n2cnc3c(N)nc(Cl)nc32)[C@H](O)[C@@H]1O)P(=O)(O)O (single isomer, unassigned) [1, isomer 2] | 100 to 1000 | 100 to 1000 | – |
| CCOC(=O)[C@](C)(OC[C@H]1O[C@@H](n2cnc3c(N)nc(Cl)nc32)[C@H](O)[C@@H]1O)P(=O)(O)O (single isomer, unassigned) [Example 9] | 100 to 1000 | < 100 | – |
| CCOC(=O)[C@@](C)(OC[C@H]1O[C@@H](n2cnc3c(N)nc(Cl)nc32)[C@H](O)[C@@H]1O)P(=O)(O)O (single isomer, unassigned) [Example 9a] | 100 to 1000 | 100 to 1000 | – |
| CS(=O)(=O)C(OC[C@H]1O[C@@H](n2cnc3c(N)nc(Cl)nc32)[C@H](O)[C@@H]1O)P(=O)(O)O (single isomer, unassigned) [Example 10] | 100 to 1000 | 100 to 1000 | – |
| CCS(=O)(=O)C(OC[C@H]1O[C@@H](n2cnc3c(N)nc(Cl)nc32)[C@H](O)[C@@H]1O)P(=O)(O)O (single isomer, unassigned) [Example 11] | 100 to 1000 | < 100 | – |
| CCS(=O)(=O)C(OC[C@H]1O[C@@H](n2cnc3c(N)nc(Cl)nc32)[C@H](O)[C@@H]1O)P(=O)(O)O (single isomer, unassigned) [Example 11a] | > 1000 | 100 to 1000 | – |
| CCCS(=O)(=O)[C@H](OC[C@H]1O[C@@H](n2cnc3c(N)nc(Cl)nc32)[C@H](O)[C@@H]1O)P(=O)(O)O (single isomer, unassigned) [Example 12] | 100 to 1000 | < 100 | – |
| CC(C)CS(=O)(=O)[C@H](OC[C@H]1O[C@@H](n2cnc3c(N)nc(Cl)nc32)[C@H](O)[C@@H]1O)P(=O)(O)O (single isomer, unassigned) [Example 13] | 100 to 1000 | < 100 | – |
| CC(C)COC(=O)[C@H](OC[C@H]1O[C@@H](n2cnc3c(N)nc(Cl)nc32)[C@H](O)[C@@H]1O)P(=O)(O)O (single isomer, unassigned) [Example 14] | < 100 | < 100 | – |
| CCOC(=O)[C@@H](OC[C@H]1C[C@@H](n2cnc3cccc(Br)c3c2=O)[C@H](O)[C@@H]1O)P(=O)(O)O (single isomer, unassigned) [Example 72a] | – | > 1000 | – |
| CCOC(=O)[C@@H](OC[C@H]1C[C@@H](n2cnc3cccc(C#N)c3c2=O)[C@H](O)[C@@H]1O)P(=O)(O)O (single isomer, unassigned) [Example 73a] | – | > 1000 | – |
| CCOC(=O)[C@@](CC(=O)O)(OC[C@H]1O[C@@H](n2cnc3c(N)nc(F)nc32)[C@H](O)[C@@H]1O)P(=O)(O)O (single isomer, unassigned) [Example 79a] | – | 100 to 1000 | – |
| CCNc1nc(Cl)nc2c1ncn2[C@@H]1O[C@H](CO[C@@](C)(C(=O)OCC)P(=O)(O)OCC)[C@@H](O)[C@H]1O (single isomer, unassigned) [Example 80] | – | – | IC50 (human CD73; [4]): > 1000 nM |
| CCNc1nc(Cl)nc2c1ncn2[C@@H]1O[C@H](CO[C@](C)(C(=O)OCC)P(=O)(O)OCC)[C@@H](O)[C@H]1O (single isomer, unassigned) [Example 80a] | – | – | IC50 (human CD73; [4]): > 1000 nM |
| CCOC(=O)C(OC[C@H]1O[C@@H](n2cnc3cc(Cl)c(Cl)cc32)[C@H](O)[C@@H]1O)P(=O)(O)O (single isomer, unassigned) [Example 81] | – | > 1000 | – |
| CCOC(=O)C(OC[C@H]1O[C@@H](n2cnc3cc(Cl)c(Cl)cc32)[C@H](O)[C@@H]1O)P(=O)(O)O (single isomer, unassigned) [Example 81a] | – | > 1000 | – |
| CCOC(=O)C(OC[C@H]1O[C@@H](n2cnc3ccc(Cl)nc32)[C@H](O)[C@@H]1O)P(=O)(O)O (single isomer, unassigned) [Example 87a] | – | > 1000 | – |
| Nc1ncnc2c1ncn2[C@@H]1O[C@H](COP(=O)(O)CP(=O)(O)O)[C@@H](O)[C@H]1O [APCP, adenosine 5′-(α,β-methylene)diphosphate, reference compound] | – | – | IC50 ([1]; IC50 value for APCP (standard), standard in each experiment, typical range): 12 to 25 nM |
| Nc1ncnc2c1ncn2[C@@H]1O[C@H](COC(C(=O)O)C(=O)O)[C@@H](O)[C@H]1O [Example 8, 2-(((2R,3S,4R,5R)-5-(6-amino-9H-purin-9-yl)-3,4-dihydroxytetrahydrofuran-2-yl)methoxy)malonic acid] | – | > 1000 | – |
| CNC(=O)C(OC[C@H]1O[C@@H](n2ccc(=O)n(C)c2=O)[C@H](O)[C@@H]1O)P(=O)(O)O (stereo partly drawn) [Example 31, (1-(((2R,3S,4R,5R)-3,4-dihydroxy-5-(3-methyl-2,4-dioxo-3,4-dihydropyrimidin-1(2H)-yl)tetrahydrofuran-2-yl)methoxy)-2-(methylamino)-2-oxoethyl)phosphonic Acid] | – | > 1000 | – |
| CCNC(=O)C(OC[C@H]1O[C@@H](n2ccc(=O)n(C)c2=O)[C@H](O)[C@@H]1O)P(=O)(O)O (stereo partly drawn) [Example 32, (1-(((2R,3S,4R,5R)-3,4-dihydroxy-5-(3-methyl-2,4-dioxo-3,4-dihydropyrimidin-1(2H)-yl)tetrahydrofuran-2-yl)methoxy)-2-(ethylamino)-2-oxoethyl)phosphonic Acid] | – | > 1000 | – |
| Nc1ncnc2c1ncn2[C@@H]1O[C@H](COC(C(=O)NO)P(=O)(O)O)[C@@H](O)[C@H]1O (stereo partly drawn) [Example 35, (1-(((2R,3S,4R,5R)-5-(6-amino-9H-purin-9-yl)-3,4-dihydroxytetrahydrofuran-2-yl)methoxy)-2-(hydroxyamino)-2-oxoethyl)phosphonic Acid] | – | > 1000 | – |
| COC(=O)C(SC[C@H]1O[C@@H](n2cnc3c(N)ncnc32)[C@H](O)[C@@H]1O)P(=O)(O)O (stereo partly drawn) [Example 56, (1-((((2S,3S,4R,5R)-5-(6-amino-9H-purin-9-yl)-3,4-dihydroxytetrahydrofuran-2-yl)methyl)thio)-2-methoxy-2-oxoethyl)phosphonic Acid] | – | > 1000 | – |
| CC(C)Nc1ncnc2c1ncn2[C@@H]1O[C@H](COC(C(=O)O)P(=O)(O)O)[C@@H](O)[C@H]1O (stereo partly drawn) [Example 64, 2-(((2R,3S,4R,5R)-3,4-dihydroxy-5-(6-(isopropylamino)-9H-purin-9-yl)tetrahydrofuran-2-yl)methoxy)-2-phosphonoacetic acid] | – | > 1000 | – |
| O=C(O)C(OC[C@H]1C[C@@H](n2cnc3cccc(Cl)c3c2=O)[C@H](O)[C@@H]1O)P(=O)(O)O (stereo partly drawn) [Example 71, 2-(((1R,2R,3S,4R)-4-(5-chloro-4-oxoquinazolin-3(4H)-yl)-2,3-dihydroxycyclopentyl)methoxy)-2-phosphonoacetic acid] | – | > 1000 | – |
| O=C(O)C(OC[C@H]1C[C@@H](n2cnc3cccc(Cl)c3c2=O)[C@H](O)[C@@H]1O)C(=O)O [Example 74, 2-(((1R,2R,3S,4R)-4-(5-chloro-4-oxoquinazolin-3(4H)-yl)-2,3-dihydroxycyclopentyl)methoxy)malonic acid] | – | > 1000 | – |
| CCNC(=O)C(OC[C@H]1C[C@@H](n2cnc3c(NCC)ncnc32)[C@H](O)[C@@H]1O)P(=O)(O)O (stereo partly drawn) [Example 75, (2-(ethylamino)-1-(((1R,2R,3S,4R)-4-(6-(ethylamino)-9H-purin-9-yl)-2,3-dihydroxycyclopentyl)methoxy)-2-oxoethyl)phosphonic Acid] | – | > 1000 | – |

From patent US10654884B2 (Vitae Pharmaceuticals, Inc., priority 2014, dated 2020)
